Experimental data reported in patent publication US10189794B2, “Heteroaryl compounds and uses thereof” (Celgene CAR LLC, priority 2013, dated 2019).

tested on: Huh7 cells; assay: Cell proliferation, Huh7 (CellTiter Glo); type: cell-based; settings: Homo sapiens, Huh-7; Huh7; 120 hr; read-out: Cell Proliferation GI50 (nM) HUH
Description: The growth inhibition (GI50) values were determined by Graph Pad Prism.

Row | Structure (SMILES) | GI50 [nM]
1 | C=CC(=O)NC1CCCCC1Nc1ncc2c(n1)N(Cc1cccc(NC(=O)CC)c1)C(=O)N(c1c(Cl)c(OC)cc(OC)c1Cl)C2 (racemic) [I-8] | 101 to 500
2 | C=CC(=O)NC1CCCCC1Nc1ncc2c(n1)N(C)C(=O)N(c1c(Cl)c(OC)cc(OC)c1Cl)C2 (racemic) [I-19] | 501 to 999
3 | C=CC(=O)NC1CCCCC1Nc1ncc2c(n1)N(CCF)C(=O)N(c1c(Cl)c(OC)cc(OC)c1Cl)C2 (racemic) [I-106] | > 1000
4 | C=CC(=O)NC1CN(C)CC1Nc1ncc2c(n1)N(C)C(=O)N(c1c(Cl)c(OC)cc(OC)c1Cl)C2 (racemic) [I-138] | > 1000
5 | C=CC(=O)NC1CN(C(C)=O)CC1Nc1ncc2c(n1)N(C)C(=O)N(c1c(Cl)c(OC)cc(OC)c1Cl)C2 (racemic) [I-139] | 501 to 999
6 | C=CC(=O)NC1CN(C2CCN(C)CC2)CC1Nc1ncc2c(n1)N(C)C(=O)N(c1c(Cl)c(OC)cc(OC)c1Cl)C2 (racemic) [I-154] | > 1000
7 | C=CC(=O)Nc1cc(C(F)(F)F)ccc1Nc1ncc2c(n1)N(Cc1ccccc1)C(=O)N(c1c(Cl)c(OC)cc(OC)c1Cl)C2 [I-6] | 101 to 500
8 | C=CC(=O)Nc1ccccc1Nc1ncc2c(n1)N(C)C(=O)N(c1c(Cl)cccc1Cl)C2 [I-83] | > 1000
9 | C=CC(=O)NC1CCCCC1Nc1ncc2c(n1)N(CC(F)F)C(=O)N(c1c(F)c(OC)cc(OC)c1F)C2 (stereo not drawn) [I-115] | > 1000
10 | C=CC(=O)Nc1cc(N2CCN(C(=O)CCCC(=O)NCCCOCCOCCOCCCNC(=O)CCCC[C@@H]3SC[C@@H]4NC(=O)N[C@@H]43)CC2)ccc1Nc1ncc2c(n1)N(C)C(=O)N(c1c(Cl)c(OC)cc(OC)c1Cl)C2 [I-127] | > 1000
11 | C=CC(=O)NC1CCCCC1Nc1ncc2c(n1)N(Cc1ccn(C)c(=O)c1)C(=O)N(c1c(Cl)c(OC)cc(OC)c1Cl)C2 (stereo not drawn) [I-132] | > 1000
12 | C=CC(=O)NC1CCCCC1Nc1ncc2c(n1)N(Cc1csc(C)n1)C(=O)N(c1c(Cl)c(OC)cc(OC)c1Cl)C2 (stereo not drawn) [I-137] | 501 to 999
13 | C=CC(=O)N[C@H]1COCC[C@H]1Nc1ncc2c(n1)N(C)C(=O)N(c1c(Cl)c(OC)cc(OC)c1Cl)C2 [I-140] | 501 to 999
14 | C=CC(=O)N[C@@H]1COC[C@@H]1Nc1ncc2c(n1)N(C)C(=O)N(c1c(Cl)c(OC)cc(OC)c1Cl)C2 [I-185] | > 1000
15 | C=CC(=O)N[C@H]1COC[C@H]1Nc1ncc2c(n1)N(C)C(=O)N(c1c(Cl)c(OC)cc(OC)c1Cl)C2 [I-186] | < 100
16 | C=CC(=O)NC1COCC1Nc1ncc2c(n1)N(C)C(=O)N(c1c(F)c(OC)cc(OC)c1F)C2 (stereo not drawn) [I-198] | 101 to 500

Row | Structure (SMILES) | GI50 [nM]
17 | C=CC(=O)NC1CN(c2ccncn2)CC1Nc1ncc2c(n1)N(C)C(=O)N(c1c(Cl)c(OC)cc(OC)c1Cl)C2 (stereo not drawn) [I-201] | 501 to 999
18 | C=CC(=O)NC1COCC1Nc1ncc2c(n1)N(C)C(=O)N(c1c(F)c(OC)cc(OC)c1Cl)C2 (stereo not drawn) [I-206] | < 100
19 | C=CC(=O)NC1COCC1Nc1ncc2c(n1)N(Cc1cscn1)C(=O)N(c1c(Cl)c(OC)cc(OC)c1Cl)C2 (stereo not drawn) [I-210] | 101 to 500
20 | C=CC(=O)NC1COCC1Nc1ncc2cc(-c3c(Cl)c(OC)cc(OC)c3Cl)c(=O)n(C)c2n1 (stereo not drawn) [I-211] | < 100
21 | C=CC(=O)NC1COCC1Nc1ncc2c(n1)N(CC1CC1)C(=O)N(c1c(Cl)c(OC)cc(OC)c1Cl)C2 (stereo not drawn) [I-212] | < 100
22 | C=CC(=O)NC1COCC1Nc1ncc2c(n1)N(Cc1cnn(C)c1)C(=O)N(c1c(Cl)c(OC)cc(OC)c1Cl)C2 (stereo not drawn) [I-213] | < 100
23 | C=CC(=O)NC1COCC1Nc1ncc2c(n1)N(Cc1ccn(C)n1)C(=O)N(c1c(Cl)c(OC)cc(OC)c1Cl)C2 (stereo not drawn) [I-215] | 101 to 500
24 | C=CC(=O)NC1COCC1Nc1ncc2c(n1)N(Cc1cc[nH]n1)C(=O)N(c1c(Cl)c(OC)cc(OC)c1Cl)C2 (stereo not drawn) [I-216] | 101 to 500
25 | C=CC(=O)NC1COCC1Nc1ncc2c(n1)N(CC)C(=O)N(c1c(Cl)c(OC)cc(OC)c1Cl)C2 (stereo not drawn) [I-217] | < 100
26 | C=CC(=O)N[C@H]1CCCC[C@H]1Nc1ncc2cc(-c3c(Cl)c(OC)cc(OC)c3Cl)c(=O)n(C)c2n1 [I-223] | 101 to 500
27 | C=CC(=O)N[C@H]1CCCC[C@H]1Nc1ncc2c(n1)N(C)C(=O)N(c1c(F)c(OC)cc(OC)c1Br)C2 [I-228] | 101 to 500
28 | COc1cc(OC)c(Cl)c(N2Cc3cnc(Nc4ccccc4)nc3N(C)C2=O)c1Cl [I-238] | < 100
29 | C=CC(=O)N[C@@H]1COC[C@@H]1Nc1ncc2cc(-c3c(Cl)c(OC)cc(OC)c3Cl)c(=O)n(C)c2n1 [I-240] | > 1000
30 | C=CC(=O)N[C@H]1COC[C@H]1Nc1ncc2cc(-c3c(Cl)c(OC)cc(OC)c3Cl)c(=O)n(C)c2n1 [I-241] | < 100
31 | C=CC(=O)Nc1cc(OC)ccc1Nc1ncc2cc(-c3c(Cl)c(OC)cc(OC)c3Cl)c(=O)n(C)c2n1 [I-242] | < 100

Other lines, results leading:

Row | GI50 [nM] | Structure (SMILES)
32 | > 1000 | C=CC(=O)Nc1ccccc1Nc1ncc2c(n1)N(CC(O)CO)C(=O)N(c1cc(OC)cc(OC)c1)C2 (stereo not drawn) [I-33]
33 | > 1000 | C=CC(=O)Nc1ccccc1Nc1ncc2c(n1)N(C1CCCN(C(=O)OC(C)(C)C)C1)C(=O)N(c1cc(OC)cc(OC)c1)C2 (stereo not drawn) [I-36]
34 | > 1000 | C=CC(=O)Nc1cc(C)ccc1Nc1ncc2c(n1)N(C)C(=O)N(c1cc(OC)cc(OC)c1)C2 [I-41]
35 | > 1000 | C=CC(=O)Nc1cc(C(F)(F)F)ccc1Nc1ncc2c(n1)N(C)C(=O)N(c1cc(OC)cc(OC)c1)C2 [I-42]
36 | 101 to 500 | C=CC(=O)Nc1ccccc1Nc1ncc2c(n1)N(C1CCCNC1)C(=O)N(c1cc(OC)cc(OC)c1)C2 (stereo not drawn) [I-43]
37 | > 1000 | C=CC(=O)Nc1ccccc1Nc1ncc2c(n1)N(CC#N)C(=O)N(c1cc(OC)cc(OC)c1)C2 [I-48]
38 | > 1000 | C=CC(=O)Nc1ccc(C(F)(F)F)cc1Nc1ncc2c(n1)N(C)C(=O)N(c1cc(OC)cc(OC)c1)C2 [I-50]
39 | > 1000 | C=CC(=O)Nc1ccccc1Nc1ncc2c(n1)N(Cc1cscn1)C(=O)N(c1cc(OC)cc(OC)c1)C2 [I-64]
40 | > 1000 | C=CC(=O)Nc1ccccc1Nc1ncc2c(n1)N(CCF)C(=O)N(c1cc(OC)cc(OC)c1)C2 [I-102]
41 | 101 to 500 | C=CC(=O)Nc1nn(C)cc1Nc1ncc2c(n1)N(C)C(=O)N(c1c(Cl)c(OC)cc(OC)c1Cl)C2 [I-117]
42 | > 1000 | C=CC(=O)Nc1ccccc1Nc1ncc2c(n1)NC(=O)N(c1cc(OC)cc(OC)c1)C2 [I-125]
43 | > 1000 | C=CC(=O)Nc1cc(-c2nnn(C)n2)ccc1Nc1ncc2c(n1)N(C)C(=O)N(c1cc(OC)cc(OC)c1)C2 [I-146]
44 | > 1000 | C=CC(=O)Nc1cc(C(=O)NC2CCN(C)CC2)ccc1Nc1ncc2c(n1)N(C)C(=O)N(c1cc(OC)cc(OC)c1)C2 [I-151]
45 | 101 to 500 | C=CC(=O)Nc1cc(-c2nnnn2C)ccc1Nc1ncc2c(n1)N(C)C(=O)N(c1c(Cl)c(OC)cc(OC)c1Cl)C2 [I-153]

tested on: MDA-MB-453 cells; assay: Cell proliferation, MDA-MB-453 (CellTiter Glo); type: cell-based; settings: Homo sapiens; MDA-MB-453; 96 hr; read-out: Cell Proliferation GI50 (nM) MDA
Description: For both MDA-MB-453 and Huh7 cells the starting density was 5000 cells per well. The cells were allowed to settle down for 4 hr and were then treated with 5, 1.25, 0.31, 0.078, 0.020 or 0.005 μM of test compound for: 96 hr for MDA-MB-453 and 120 hr for Huh7 cells. Cell viability was determined by CellTiter Glo (Promega, Madison, Wis.) and the results were converted to cell numbers using a standard curve. The growth inhibition (GI50) values were determined by Graph Pad Prism.
The results of these experiments show the ability of compounds to inhibit cell growth in FGFR dependant cell lines and are depicted in Table 8, in the columns titled “Cell Proliferation GI50 (nM)”. MDA-MB-453 cell results fall under the heading “MDA” and Huh7 cell results fall under the heading “Huh.”

Row | Structure (SMILES) | GI50 [nM]
46 | C=CC(=O)NC1CCCCC1Nc1ncc2c(n1)N(Cc1cccc(NC(=O)CC)c1)C(=O)N(c1c(Cl)c(OC)cc(OC)c1Cl)C2 (racemic) [I-8] | < 100
47 | C=CC(=O)NC1CCCCC1Nc1ncc2c(n1)N(C)C(=O)N(c1c(Cl)c(OC)cc(OC)c1Cl)C2 (racemic) [I-19] | 101 to 500
48 | C=CC(=O)Nc1cc(C(F)(F)F)ccc1Nc1ncc2c(n1)N(Cc1ccccc1)C(=O)N(c1c(Cl)c(OC)cc(OC)c1Cl)C2 [I-6] | < 100
49 | C=CC(=O)Nc1ccccc1Nc1ncc2c(n1)N(C1CC1)C(=O)N(c1c(Cl)c(OC)cc(OC)c1Cl)C2 [I-23] | < 100
50 | C=CC(=O)Nc1ccccc1Nc1ncc2c(n1)N(Cc1ccc(Cl)c(OC)c1)C(=O)N(c1c(Cl)c(OC)cc(OC)c1Cl)C2 [I-24] | < 100
51 | C=CC(=O)N[C@H]1CCCC[C@H]1Nc1ncc2c(n1)N(Cc1ccccc1)C(=O)N(c1c(Cl)c(OC)cc(OC)c1Cl)C2 [I-82] | < 100
52 | C=CC(=O)Nc1ccccc1Nc1ncc2c(n1)N(C)C(=O)N(c1c(Cl)cccc1Cl)C2 [I-83] | 501 to 999
53 | C=CC(=O)Nc1ccccc1Nc1ncc2c(n1)N(Cc1cscn1)C(=O)N(c1c(Cl)c(OC)cc(OC)c1Cl)C2 [I-86] | < 100
54 | C=CC(=O)Nc1ccccc1Nc1ncc2c(n1)N(Cc1nccs1)C(=O)N(c1c(Cl)c(OC)cc(OC)c1Cl)C2 [I-91] | < 100
55 | C=CC(=O)N[C@H]1CCCC[C@H]1Nc1ncc2c(n1)N(Cc1nccs1)C(=O)N(c1c(Cl)c(OC)cc(OC)c1Cl)C2 [I-92] | 101 to 500
56 | C=CC(=O)Nc1ccccc1Nc1ncc2c(n1)N(CC1CC1)C(=O)N(c1cc(OC)cc(OC)c1F)C2 [I-109] | < 100
57 | C=CC(=O)Nc1ccccc1Nc1ncc2c(n1)N(Cc1ccnc(N)c1)C(=O)N(c1c(Cl)c(OC)cc(OC)c1Cl)C2 [I-135] | < 100
58 | C=CC(=O)Nc1ccccc1Nc1ncc2c(n1)N(Cc1ccn(C)n1)C(=O)N(c1c(Cl)c(OC)cc(OC)c1Cl)C2 [I-136] | < 100

The next lines start with the values.

Row | GI50 [nM] | Structure (SMILES)
59 | 101 to 500 | C=CC(=O)Nc1cc(N2CCCCC2)ccc1Nc1ncc2c(n1)N(C)C(=O)N(c1cc(OC)cc(OC)c1)C2 [I-31]
60 | 501 to 999 | C=CCN1C(=O)N(c2cc(OC)cc(OC)c2)Cc2cnc(Nc3ccccc3NC(=O)C=C)nc21 [I-32]
61 | 501 to 999 | C=CC(=O)Nc1ccccc1Nc1ncc2c(n1)N(C1CC1)C(=O)N(c1cc(OC)cc(OC)c1)C2 [I-34]
62 | 501 to 999 | C=CC(=O)Nc1ccccc1Nc1ncc2c(n1)N(CC#N)C(=O)N(c1cc(OC)cc(OC)c1)C2 [I-48]
63 | 101 to 500 | C=CC(=O)Nc1ccccc1Nc1ncc2c(n1)N(Cc1cscn1)C(=O)N(c1cc(OC)cc(OC)c1)C2 [I-64]
64 | 501 to 999 | C=CS(=O)(=O)Nc1ccccc1Nc1ncc2c(n1)N(C)C(=O)N(c1cc(OC)cc(OC)c1)C2 [I-67]
65 | 101 to 500 | C=CC(=O)Nc1ccccc1Nc1ncc2c(n1)N(C)C(=O)N(c1cc(OC)cc(OC)c1Cl)C2 [I-75]
66 | 101 to 500 | C=CC(=O)Nc1cc(-c2cnn(C)c2)ccc1Nc1ncc2c(n1)N(C)C(=O)N(c1cc(OC)cc(OC)c1)C2 [I-77]
67 | 101 to 500 | C=CC(=O)Nc1ccc(-c2nccs2)cc1Nc1ncc2c(n1)N(C)C(=O)N(c1cc(OC)cc(OC)c1)C2 [I-78]
68 | 101 to 500 | C=CC(=O)Nc1ccccc1Nc1ncc2c(n1)N(Cc1cccc(C#N)c1)C(=O)N(c1cc(OC)cc(OC)c1)C2 [I-90]
69 | 101 to 500 | C=CC(=O)Nc1ccccc1Nc1ncc2c(n1)N(C)C(=O)N(c1cc(OC)cc(OC)c1F)C2 [I-108]
